Data as given in publication PMC11858597, “Synthesis, Anticancer Screening, and In Silico Evaluations of Thieno[2,3-c]pyridine Derivatives as Hsp90 Inhibitors” (Pharmaceuticals, 2025).
Each block holds one molecule with its values, some of them ahead of it.

How the values were obtained:
MCF7 = experiment: MTT assay, MCF7 breast cancer cells; type: cell-based
Description: (§1) An MTT assay was used to evaluate the final compounds’ anticancer activity against MCF7 and T47D (breast cancer cells), HSC3 (head and neck cancer cells), and RKO (colorectal cancer cells) cell lines, using cisplatin as a reference standard. Table 1 presents the percentage growth inhibition of all compounds against the various cancer cell lines.
(§2) The cancer cell lines MCF7 and T47D (breast cancer cells), HSC3 (head and neck cancer cells), and RKO (colorectal cancer cells) were kindly provided by Prof. Stephan Feller, Institute of Molecular Medicine, Martin Luther University, Halle, Germany. The human fibroblast (PDL) cell line was obtained as a kind gift from Prof. Khaled Al-Qaoud (Yarmouk University, Irbid, Jordan). All cell lines were cultured in Dulbecco’s Modified Eagle’s Medium (DMEM) supplemented with 10% fetal bovine serum, 100 µg/mL streptomycin, 100 U/mL penicillin, and 1% non-essential amino acid at 37 °C with 5% CO2 in a humidified CO2 incubator. The cell cultures were grown to confluence, and the medium was changed two times weekly.
(§3) The MTT (3-[4,5-dimethylthiazol-2-yl]-2,5-diphenyl tetrazolium bromide) assay was used to investigate cell viability and to calculate the half-maximal inhibitory concentration (IC50) values of the compounds 6(a–k) including standard reference cisplatin. Furthermore, […] stock solutions of the compounds were prepared in DMSO where all compounds were completely soluble. Cells were seeded in 96-well tissue culture plates at a density of 6,000 cells/well for MCF7, T47D, and PDL cells and at a density of 4000 cells/well for RKO and HSC3 cells. After 24 h of seeding, investigated cells were treated with three concentrations (1, 10, and 100 µm) of the compounds for 72 h. At the end of the treatment time, the supernatant medium was aspirated, and 50 µL of fresh DMEM containing MTT (0.5 mg/mL) was added to each well. Cells were then incubated at 37 °C for 2–4 h. After that, the medium was completely removed, and 50 µL of DMSO was added to each well to dissolve the precipitated formazan crystals formed by viable cells. Cell viability, represented by the absorbance of the formazan solution, was measured at 570 nm using the Synergy HTX Multimode Reader (BioTek, Vermont, USA), and cell viability was determined as described in the literature. For each concentration, the relative cell viability was calculated as follows: relative cell viability = (mean treatment absorbance/mean control absorbance) × 100%. Assays were performed in triplicate on three independent experiments. […] IC50 values were then calculated using the four-parameter logistic function in the SigmaPlot software (version 12.5) and presented as the mean ± SD from three independent experiments.

T47D = experiment: MTT assay, T47D breast cancer cells; type: cell-based; conditions: Homo sapiens, 72 h
Description: as §1, §2, §3

HSC3 = experiment: MTT assay, HSC3 head and neck cancer cells; type: cell-based
Description: as §1, §2, §3

RKO = experiment: MTT assay, RKO colorectal cancer cells; type: cell-based; conditions: Homo sapiens, 72 h
Description: as §1, §2, §3

PDL = experiment: MTT assay, normal fibroblast cell line (PDL); type: cell-based, human; conditions: 72 h
Description: To understand the selectivity of compounds, a normal fibroblast cell line (human periodontal ligament-PDL) is also included in this IC50 determination.
as §2, §3

HSC3 cells [1] = experiment: Apoptosis evaluation by Annexin V/PI staining, HSC3; type: cell-based; conditions: HSC3, IC50 concentration, 72 h
Protocol: (§4) To further examine the processes responsible for reduced cell viability, apoptosis was evaluated by Annexin V/Propidium Iodide (PI) double staining, as outlined in the experimental section by considering the best active compound 6i. […] Annexin V/PI staining detects very little increase in Annexin-positive cells; 6i-treated cells were stained with Annexin V and PI for fluorescence-activated cell sorting (FACS) analysis. The results establish that 6i may promote cell death by processes distinct from apoptosis, deserving further investigation into alternative pathways, such as autophagy or ferroptosis.
(§5) Floating dead cells and the attached cells were collected, washed with PBS, and resuspended in 100 μL of Annexin V solution for 30 min according to the manufacturer’s instruction (Annexin V-FITC Kit, Miltenyi Biotec, Gaithersburg, MD, USA, Catalog Number 130-092-052). After Annexin V staining, cells were stained shortly with PI to exclude the dead cells. The quantitative analysis for apoptosis was performed by FACS Accuri C6 Plus (BD BIOSCIENCES, Franklin Lakes, NJ, USA) flow cytometer. About 10,000 events were analyzed using the FlowJo software (version 10).

RKO cells [2] = experiment: Apoptosis evaluation by Annexin V/PI staining, RKO; type: cell-based; conditions: IC50 concentration, 72 h
Protocol: as §4, §5

HSC3 cells [3] = experiment: Cell cycle analysis (PI staining), HSC3; type: cell-based; conditions: HSC3, IC50 concentration, 72 h
Protocol: (§6) In a subsequent set of experiments, we aimed to evaluate the effect of compound 6i on the cell cycle. Treatment with 6i led to a significant accumulation of HSC3 and RKO cells in the G2 phase (HSC3: control, 34.6% ± 3.2% vs. 6i, 46.4% ± 3.6%; RKO: control, 34.5% ± 2.9% vs. 6i, 64.2% ± 3.5%).
(§7) The supernatant with the floating dead cells and the attached cells from each well were collected and fixed in cold ethanol at −20 °C for 30 min [69]. Cells were stained with a Propidium iodide (PI) working solution (1 µg/mL PI and 10 µg/mL RNase A in PBS) for 30 min at 37 °C in the dark and then washed with PBS. Cell fluorescence was measured using the FACS Accuri C6 Plus (BD BIOSCIENCES, Franklin Lakes, NJ, USA) flow cytometer. Histograms of cell counts versus […] fluorescence were generated, and the distribution of cells throughout several cell cycle stages was assessed based on the mean fluorescence intensity values. About 10,000 events were examined utilizing FlowJo software (version 10).

RKO cells [4] = experiment: Cell cycle analysis (PI staining), RKO; type: cell-based; conditions: IC50 concentration, 72 h
Protocol: as §6, §7

Hsp90 = system: Hsp90; design: method as in PMID 20371713; conditions: against breast cancer; read-out: Hsp90 inhibition IC50; cited from earlier work
[5] = 1 µM, read-out: % cell growth inhibition
[6] = 10 µM, read-out: % cell growth inhibition
[7] = 100 µM, read-out: % cell growth inhibition

- IC50 (MCF7; Homo sapiens, MCF7, 72 h): 16.4 ± 0.2 µM
- IC50 (T47D): 11.7 ± 1.1 µM
- IC50 (HSC3; Homo sapiens, HSC-3, HSC3, 72 h): 10.8 ± 3.9 µM
- IC50 (RKO): 12.4 ± 1.9 µM
Compound: CCOC(=O)c1c(NC(=O)CN2CCSCC2)sc2c1CCN(C(=O)OCC)C2 [6i, Diethyl 2-(2-thiomorpholinoacetamido)-4,7-dihydrothieno[2,3-c]pyridine-3,6(5H)-dicarboxylate]
- inhibition at 1 µM (MCF7; Homo sapiens, MCF7, 1 µM, 72 h, read-out: % cell growth inhibition): 1.53%
- inhibition at 10 µM (MCF7; Homo sapiens, MCF7, 10 µM, 72 h, read-out: % cell growth inhibition): 39.1%
- inhibition at 100 µM (MCF7; Homo sapiens, MCF7, 100 µM, 72 h, read-out: % cell growth inhibition): 95.3%
- % cell growth inhibition (MCF7; MCF7, 1 µM, 72 h): weak inhibition
- inhibition at 1 µM (T47D; [5]): 1.9%
- inhibition at 10 µM (T47D; [6]): 35.3%
- inhibition at 100 µM (T47D; [7]): 83.9%
- % cell growth inhibition (HSC3; HSC3, 100 µM, 72 h, 100 µM): 94.04%
- inhibition at 1 µM (HSC3; Homo sapiens, HSC-3, 72 h, HSC3, 1 µM, 72 h, read-out: % cell growth inhibition): 14.8%
- inhibition at 10 µM (HSC3; Homo sapiens, HSC-3, 72 h, HSC3, 10 µM, 72 h, read-out: % cell growth inhibition): 62.3%
- inhibition at 100 µM (HSC3; Homo sapiens, HSC-3, 72 h, HSC3, 100 µM, 72 h, read-out: % cell growth inhibition): 94%
- inhibition at 1 µM (RKO; [5]): 5.17%
- inhibition at 10 µM (RKO; [6]): 55.4%
- inhibition at 100 µM (RKO; [7]): 92.5%
- IC50 (PDL; Homo sapiens, Fibroblast, PDL normal fibroblasts): > 100 µM
- toxicity to normal fibroblast cell lines, PDL (PDL; PDL): no toxicity
- proportion of apoptotic cells with positive Annexin V staining (HSC3 cells [1]): significantly lower
- proportion of apoptotic cells with positive Annexin V staining (RKO cells [2]): significantly lower
- proportion of cells in the G1 and S phases (HSC3 cells [3]; vs control): markedly reduced
- cells in the G2 phase (HSC3 cells [3]; control 34.6% ± 3.2%): 46.4% ± 3.6%
- cells in the G2 phase (RKO cells [4]; control 34.5% ± 2.9%): 64.2% ± 3.5%
- proportion of cells in the G1 and S phases (RKO cells [4]; vs control): markedly reduced

Compound: CCNC(=O)c1cc2c(-c3cc(OCCN4CCCC4)c(Cl)cc3Cl)nc(N)nc2s1 [NVP-BEP800]
- IC50 (Hsp90): 58 nM
